# Patent US20120171123A1, “USES AND COMPOSITIONS FOR TREATMENT OF RHEUMATOID ARTHRITIS” (priority 2006, published 2012)
# Where two headings read alike, the source gives them in different places.
# How the values were obtained:
# [1] = test system: MTX-naïve adult patients with active, early RA (<3 years); settings: in vivo
# Text: Study J was a 2-year randomized controlled trial in patients with early RA (disease duration<3 years). Participants in these clinical trials and in other phase Mb studies, were routinely evaluated for safety. Reports of serious adverse events (SAE) were tabulated using MedDRA coding by events per 100-patient-years (E/100PY). SAE rates were compared with respect to disease duration between patients with early (<3 yrs) and long-standing RA.
# [2] = test system: patients with long-standing RA; experiment: Study 4: DAS28, clinical remission and sustained remission; assay type: in vivo, human
# Text: DAS28 represents disease activity, taking into consideration the TJC 28, SJC 28, CRP, and patient general health (based on VAS of 100 mm) (see Prevoo et al. (1995) Arthritis Rheum 38:44-48 and Van Gestel et al. (1999) J Rheumatol 26:705-711, each of which is incorporated by reference herein). DAS28 scores greater than or equal to 5.1 represent severe activity disease activity, less than 5.1 to 3.2 indicate moderate disease activity, less than 3.2 to 2.6 indicate low disease activity, and scores below 2.6 represent remission. At the end of the fourth year, the median DAS28 score was 2.7 (low disease activity). […] The largest increase in percentage of patients in clinical remission was seen between months 0-6, where an increase in the percentage of patients in remission went from 0% at month 0 to about 27% at month 6.
# The rates of sustained remission and time to remission were consistent across durations of the disease. Remission rates were defined as greater than or equal to 6 months by baseline disease duration. Rates of sustained remission and time to remission are described below in Table 16.
# Remission rates were defined as greater than or equal to 6 months by baseline disease duration.
# Efficacy outcomes were evaluated as observed data: DAS28; ACR 20/50/70; Tender Joint Count (TJC); Swollen Joint Count (SJC); and HAQ Disability Index. Baseline demographics and disease characteristics were similar in both Study 4 and Study 5 consistent with moderate to severe RA, as shown below in Table 64: […]
# [3] = test system: patients with RA who had failed prior treatment with infliximab; experiment: Adalimumab after failed infliximab: TJC28 and SJC28; assay type: in vivo, human; settings: 16 wk
# Text: Patients eligible to participate in the study included those with long-standing, moderate to severe RA who had terminated infliximab therapy because of lack or loss of efficacy and/or intolerance/side effects. […] Follow-up visits for safety and efficacy monitoring were scheduled at 2, 8, and 16 weeks. […] Efficacy parameters included TJC28 and SJC28; DAS28; ACR20, ACR50 Response; Moderate EULAR response; and HAQ. Subgroup analysis by reason for discontinuation included: • in case of discontinuation due to lack or loss of efficacy, patients were counted in the corresponding group regardless of additional cause of intolerance. • The subgroup “Discontinuation due to intolerance” was exclusive.
# [4] = test system: patients with RA
# Text: The ADA pivotal trials were Study I, Study I (both ADA+MTX in MTX partial responders), Study 2 (ADA monotherapy) and Study K (ADA added to standard of care). Patients from the Phase I-III controlled clinical trials of ADA in RA, including the pivotals, were allowed to receive ADA as long-term, open-label therapy in 3 extension studies: 1) Study 18, for ADA monotherapy in the EU, 2) Study 20, for ADA with MTX in NA, and 3) the extension of Study 1, in NA. […] Adverse events are classified as “serious” adverse events based on the following regulatory criteria: fatal, life-threatening, requires inpatient hospitalization, prolongs hospitalization, causes congenital anomaly/birth defect, results in persistent or significant disability/incapacity, an important medical event that jeopardizes the patient and requires medical/surgical intervention to prevent another serious outcome. Serious infections (SI) are defined as “serious adverse events” that are coded under “Infections and Infestations” in the MedDRA coding system. […] 1, 2005 were analyzed in the report described herein. Non-serious infections were not included in this analysis. Serious infections reported during these trials were tabulated and rates were calculated as events per patient-year (E/PY). […] Rates of SI were determined for subsets of patients who, at the time of the SI, had diabetes, or were using concomitant steroids or concomitant MTX.
# [5] = test system: MTX-naïve adult patients with active, early RA (<3 years); settings: human, in vivo
# [6] = all reasons for infliximab withdrawal (N=37)
# [7] = loss of response to infliximab (N=19)
# [8] = no response to infliximab (N=13)
# [9] = open-label trials, N = 2504, 7951 PY
substance,measurement,setting,value
"adalimumab: human anti-TNF mAb (HUMIRA, Abbott Laboratories), described in U.S. Pat. No. 6,090,382 as D2E7",All infectious AE,[1],110 Events/100-PY
same,Demyelination,[1],0.0 Events/100-PY
same,Lymphoma,[1],0.0 Events/100-PY
same,Malignancies,[1],0.9 Events/100-PY
same,Pancytopenia,[1],0.0 Events/100-PY
same,Serious AE,[1],21.1 Events/100-PY
same,Serious Infectious AE,[1],0.7 Events/100-PY
same,"DAS28, % change of mean clinical improvement from baseline",[2]; 6 months of exposure,39%
same,"DAS28, % change of mean clinical improvement from baseline",[2]; 12 months,44%
same,"DAS28, % change of mean clinical improvement from baseline",[2]; 24 months,45%
same,"DAS28, % change of mean clinical improvement from baseline",[2]; 36 months,47%
same,"DAS28, % change of mean clinical improvement from baseline",[2]; 48 months,50%
same,patients in clinical remission (DAS28<2.6),[2]; 48 months,49%
same,patients achieving clinical remission (DAS28<2.6),[2]; Year 5,Over 40%
same,Months in remission (mean),[2]; baseline DAS28 < 5.1,27 months
same,Months until remission (mean),[2]; baseline DAS28 < 5.1,8 months
same,patients with sustained remission (≧6 months),[2]; baseline DAS28 < 5.1,"(n = 105, 50%*)"
same,Months in remission (mean),[2]; baseline DAS28 ≧ 5.1,23 months
same,Months until remission (mean),[2]; baseline DAS28 ≧ 5.1,11 months
same,patients with sustained remission (≧6 months),[2]; baseline DAS28 ≧ 5.1,"(n = 140, 22%**)"
same,% of visits with ACR70 during remission,[2]; disease duration >2 years,64%
same,% of visits with CRP <10 mg/L during remission,[2]; disease duration >2 years,95%
same,% of visits with SJC = 0 during remission,[2]; disease duration >2 years,54%
same,% of visits with TJC = 0 during remission,[2]; disease duration >2 years,70%
same,Months in remission (mean),[2]; disease duration >2 years,25 months
same,Months until remission (mean),[2]; disease duration >2 years,10 months
same,patients with sustained remission (≧6 months),[2]; disease duration at entry >2 years,"(n = 209, 29%*)"
same,patients with sustained remission (≧6 months),[2]; disease duration at entry ≦2 years,"(n = 36, 31%*)"
same,% of visits with ACR70 during remission,[2]; disease duration ≦2 years,71%
same,% of visits with CRP <10 mg/L during remission,[2]; disease duration ≦2 years,94%
same,% of visits with SJC = 0 during remission,[2]; disease duration ≦2 years,64%
same,% of visits with TJC = 0 during remission,[2]; disease duration ≦2 years,77%
same,Months in remission (mean),[2]; disease duration ≦2 years,25 months
same,Months until remission (mean),[2]; disease duration ≦2 years,10 months
same,median DAS28 score,[2]; end of fourth year,2.7
same,patients in clinical remission (DAS28<2.6),[2]; month 6,about 27%
same,"Change in SJC (0-28), mean change from baseline",[3]; [6],−5.2
same,"Change in TJC (0-28), mean change from baseline",[3]; [6],−7.4
same,"Change in SJC (0-28), mean change from baseline",[3]; infliximab intolerance (N=5),−7.8
same,"Change in TJC (0-28), mean change from baseline",[3]; infliximab intolerance (N=5),−10.0
same,"Change in SJC (0-28), mean change from baseline",[3]; [7],−6.1
same,"Change in TJC (0-28), mean change from baseline",[3]; [7],−8.2
same,"Change in SJC (0-28), mean change from baseline",[3]; [8],−2.8
same,"Change in TJC (0-28), mean change from baseline",[3]; [8],−5.1
same,serious infection rate,"[4]; 146 patients with diabetes, 427 PY",0.049 /PY
same,patients who experienced a serious infection,[4]; 285 of 2504 patients,11%
same,serious infection rate,"[4]; 2504 patients, 7951 PY, to Mar. 1, 2005",0.045 /PY
same,rate of serious infections,[4]; all patients,4.5 events per 100 PY
same,serious infection rate,"[4]; blinded controlled phases of pivotal trials, 1380 patients",0.042 /PY
same,Pneumonia,"[4]; human, in vivo",64 events
same,cellulitis,"[4]; human, in vivo",29 events
same,Septic arthritis,[4]; open-label trials,37 events
same,"Patients with serious infections, %",[4]; [9],11.4%
same,Serious infection Cellulitis: number of events E,[4]; [9],29
same,Serious infection Cellulitis: rate (E/100PY),[4]; [9],0.4 E/100PY
same,Serious infection Pneumonia: number of events E,[4]; [9],64
same,Serious infection Pneumonia: rate (E/100PY),[4]; [9],0.8 E/100PY
same,Serious infection Septic Arthritis: number of events E,[4]; [9],37
same,Serious infection Septic Arthritis: rate (E/100PY),[4]; [9],0.5 E/100PY
same,rate of serious infections,[4]; with diabetes mellitus,4.9 events per 100 PY
same,rate of serious infections,[4]; without diabetes mellitus,4.5 events per 100 PY
same,"withdrawn, reason AE",[5],11%
